Data from PubChem BioAssay (NCI).
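These data come from cells grown in 96-well plates and exposed to compound for 48 hours at five concentrations. Definition used: TGI = concentration required for complete inhibition of growth.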

Assays:
Assay in all cases: NCI anticancer screen, dose series, 48 h
OVCAR-4 ovarian = system: OVCAR-4 ovarian
HCC-2998 colon = system: HCC-2998 colon
SNB-19 CNS = system: SNB-19 CNS
SK-MEL-28 melanoma = system: SK-MEL-28 melanoma
U251 CNS = system: U251 CNS
HT29 colon = system: HT29 colon
NCI-H23 lung = system: NCI-H23 lung
A549 NSCLC = system: A549 NSCLC
NCI-H460 lung = system: NCI-H460 lung
IGROV1 ovarian = system: IGROV1 ovarian
MDA-MB-435 = system: MDA-MB-435
NCI-H226 lung = system: NCI-H226 lung
HL-60(TB) leukemia = system: HL-60(TB) leukemia
UACC-62 melanoma = system: UACC-62 melanoma
OVCAR-8 ovarian = system: OVCAR-8 ovarian
MDA-N = system: MDA-N
ACHN renal = system: ACHN renal
HCT-15 colon = system: HCT-15 colon
HOP-62 NSCLC = system: HOP-62 NSCLC
MCF7 breast = system: MCF7 breast
NCI-H522 lung = system: NCI-H522 lung
MALME-3M melanoma = system: MALME-3M melanoma
EKVX NSCLC = system: EKVX NSCLC
T-47D breast = system: T-47D breast
OVCAR-3 ovarian = system: OVCAR-3 ovarian
SW-620 colon = system: SW-620 colon
HOP-92 NSCLC = system: HOP-92 NSCLC
SF-295 CNS = system: SF-295 CNS
MOLT-4 leukemia = system: MOLT-4 leukemia
SF-268 CNS = system: SF-268 CNS
KM12 colon = system: KM12 colon
DU-145 prostate = system: DU-145 prostate
SN12C renal = system: SN12C renal
UACC-257 melanoma = system: UACC-257 melanoma
M14 melanoma = system: M14 melanoma
TK-10 renal = system: TK-10 renal
CCRF-CEM leukemia = system: CCRF-CEM leukemia
RXF 393 renal = system: RXF 393 renal
K-562 leukemia = system: K-562 leukemia
HCT-116 colon = system: HCT-116 colon
HS 578T breast = system: HS 578T breast
SF-539 CNS = system: SF-539 CNS
BT-549 breast = system: BT-549 breast
786-0 renal = system: 786-0 renal
SK-MEL-5 melanoma = system: SK-MEL-5 melanoma
SR leukemia = system: SR leukemia
NCI/ADR-RES ovarian = system: NCI/ADR-RES ovarian
MDA-MB-231 breast = system: MDA-MB-231 breast
SNB-75 CNS = system: SNB-75 CNS
PC-3 prostate = system: PC-3 prostate
OVCAR-5 ovarian = system: OVCAR-5 ovarian
SK-OV-3 ovarian = system: SK-OV-3 ovarian
SK-MEL-2 melanoma = system: SK-MEL-2 melanoma
RPMI-8226 leukemia = system: RPMI-8226 leukemia
COLO 205 colon = system: COLO 205 colon
LOX IMVI melanoma = system: LOX IMVI melanoma
CAKI-1 renal = system: CAKI-1 renal
UO-31 renal = system: UO-31 renal
A498 renal = system: A498 renal

c1ccc2[nH]c3c(N=NC4=NCCN4)c4ccccc4c-3nc2c1
TGI (OVCAR-4 ovarian): > 100 µM
TGI (HCC-2998 colon): 14.9 µM
TGI (SNB-19 CNS): 68.9 µM
TGI (SK-MEL-28 melanoma): 27.2 µM
TGI (U251 CNS): 19.7 µM
TGI (HT29 colon): 2.7 µM
TGI (NCI-H23 lung): 23.3 µM
TGI (A549 NSCLC): 16.8 µM
TGI (NCI-H460 lung): 7.81 µM
TGI (IGROV1 ovarian): > 100 µM
TGI (MDA-MB-435): 21.8 µM
TGI (NCI-H226 lung): 23.7 µM
TGI (HL-60(TB) leukemia): > 100 µM
TGI (UACC-62 melanoma): 21.1 µM
TGI (OVCAR-8 ovarian): 9.39 µM
TGI (MDA-N): 20.7 µM
TGI (ACHN renal): > 100 µM
TGI (HCT-15 colon): 15.8 µM
TGI (HOP-62 NSCLC): 39.3 µM
TGI (MCF7 breast): 11.4 µM
TGI (NCI-H522 lung): 17.3 µM
TGI (MALME-3M melanoma): 24.1 µM
TGI (EKVX NSCLC): 33.3 µM
TGI (T-47D breast): > 100 µM
TGI (OVCAR-3 ovarian): 30.2 µM
TGI (SW-620 colon): 13.6 µM
TGI (HOP-92 NSCLC): 20.4 µM
TGI (SF-295 CNS): 12.2 µM
TGI (MOLT-4 leukemia): > 100 µM
TGI (SF-268 CNS): > 100 µM
TGI (KM12 colon): 15.8 µM
TGI (DU-145 prostate): > 100 µM
TGI (SN12C renal): > 100 µM
TGI (UACC-257 melanoma): 36.5 µM
TGI (M14 melanoma): 20.4 µM
TGI (TK-10 renal): 66.6 µM
TGI (CCRF-CEM leukemia): > 100 µM
TGI (RXF 393 renal): 14.3 µM
TGI (K-562 leukemia): > 100 µM
TGI (HCT-116 colon): 13.4 µM
TGI (HS 578T breast): > 100 µM
TGI (SF-539 CNS): 20.2 µM
TGI (BT-549 breast): 41.9 µM
TGI (786-0 renal): 22.4 µM
TGI (SK-MEL-5 melanoma): 15.9 µM
TGI (SR leukemia): > 100 µM
TGI (NCI/ADR-RES ovarian): 20.1 µM
TGI (MDA-MB-231 breast): 32.4 µM
TGI (SNB-75 CNS): 16.4 µM

COc1cc(S(=O)(=O)Nc2ccc(-c3csc(N4C(=O)C(Cl)C4c4cccc(Oc5ccccc5)c4)n3)cc2)ccc1Cl (stereo not given)
TGI (PC-3 prostate): 30.8 µM
TGI (OVCAR-5 ovarian): > 100 µM
TGI (OVCAR-4 ovarian): 18.1 µM
TGI (HCC-2998 colon): > 100 µM
TGI (SNB-19 CNS): > 100 µM
TGI (SK-MEL-28 melanoma): 79.8 µM
TGI (SK-OV-3 ovarian): > 100 µM
TGI (SK-MEL-2 melanoma): 76.7 µM
TGI (HT29 colon): > 100 µM
TGI (RPMI-8226 leukemia): > 100 µM
TGI (NCI-H23 lung): 36.9 µM
TGI (A549 NSCLC): > 100 µM
TGI (NCI-H460 lung): > 100 µM
TGI (IGROV1 ovarian): 7.45 µM
TGI (MDA-MB-435): 39.7 µM
TGI (NCI-H226 lung): 39.8 µM
TGI (HL-60(TB) leukemia): 41.7 µM
TGI (UACC-62 melanoma): 53.4 µM
TGI (OVCAR-8 ovarian): > 100 µM
TGI (COLO 205 colon): 45.5 µM
TGI (MDA-N): 64.7 µM
TGI (ACHN renal): 57.1 µM
TGI (HCT-15 colon): > 100 µM
TGI (HOP-62 NSCLC): > 100 µM
TGI (MCF7 breast): > 100 µM
TGI (LOX IMVI melanoma): 4.89 µM
TGI (NCI-H522 lung): 3.22 µM
TGI (MALME-3M melanoma): > 100 µM
TGI (EKVX NSCLC): 52 µM
TGI (T-47D breast): 41.9 µM
TGI (OVCAR-3 ovarian): > 100 µM
TGI (SW-620 colon): > 100 µM
TGI (CAKI-1 renal): 41.8 µM
TGI (HOP-92 NSCLC): 37.4 µM
TGI (SF-295 CNS): > 100 µM
TGI (MOLT-4 leukemia): > 100 µM
TGI (SF-268 CNS): 28.3 µM
TGI (KM12 colon): 73.9 µM
TGI (DU-145 prostate): 52.1 µM
TGI (UO-31 renal): 43.9 µM
TGI (SN12C renal): 30.2 µM
TGI (UACC-257 melanoma): > 100 µM
TGI (M14 melanoma): 52.4 µM
TGI (CCRF-CEM leukemia): > 100 µM
TGI (RXF 393 renal): 15.6 µM
TGI (K-562 leukemia): 91.2 µM
TGI (HCT-116 colon): > 100 µM
TGI (HS 578T breast): > 100 µM
TGI (SF-539 CNS): 29.6 µM
TGI (BT-549 breast): 81.5 µM
TGI (786-0 renal): 26.5 µM
TGI (SK-MEL-5 melanoma): > 100 µM
TGI (SR leukemia): > 100 µM
TGI (NCI/ADR-RES ovarian): > 100 µM
TGI (SNB-75 CNS): 45.8 µM
TGI (A498 renal): 64.8 µM
